Assay results reported in PubChem BioAssay AID2060332 (Molecular Pharmacology Branch, DTP, NCI, 2025).
pIC50: −log10 of the molar value.

Tested on: LG0567-F671-PDC multi-cell spheroid viability
Assay: Anticancer human tumor LG0567-F671-PDC patient-derived lung adenocarcinoma cell line growth inhibition [IpAb]
Conditions: for pIC50: curve of first compound; for viability, T/C: stronger effect = lower value; active means viability on the fitted dose curve at most 10% of control; inactive means the rest
How it was run: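 Spheroids of 60% malignant cells, 25% HUVEC and 15% MSC were exposed to targeted agents combined with ipatasertib or abemaciclib. Doses started at or near clinical Cmax (10 microM when unknown) and fell in half-log steps.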

[1] = second compound 0.01 µM, first compound 0.0316 µM
[2] = second compound 0.01 µM, first compound 0.1 µM
[3] = second compound 0.01 µM, first compound 0.316 µM
[4] = second compound 0.01 µM, first compound 1 µM
[5] = second compound 0.01 µM, first compound 3.16 µM
[6] = second compound 0.01 µM, first compound 10 µM
[7] = second compound 0.0316 µM, first compound 0.0316 µM
[8] = second compound 0.0316 µM, first compound 0.1 µM
[9] = second compound 0.0316 µM, first compound 0.316 µM
[10] = second compound 0.0316 µM, first compound 1 µM
[11] = second compound 0.0316 µM, first compound 3.16 µM
[12] = second compound 0.0316 µM, first compound 10 µM
[13] = second compound 0.1 µM, first compound 0.0316 µM
[14] = second compound 0.1 µM, first compound 0.1 µM
[15] = second compound 0.1 µM, first compound 0.316 µM
[16] = second compound 0.1 µM, first compound 1 µM
[17] = second compound 0.1 µM, first compound 3.16 µM
[18] = second compound 0.1 µM, first compound 10 µM
[19] = second compound 0.316 µM, first compound 0.0316 µM
[20] = second compound 0.316 µM, first compound 0.1 µM
[21] = second compound 0.316 µM, first compound 0.316 µM
[22] = second compound 0.316 µM, first compound 1 µM
[23] = second compound 0.316 µM, first compound 3.16 µM
[24] = second compound 0.316 µM, first compound 10 µM
[25] = second compound 1 µM, first compound 0.0316 µM
[26] = second compound 1 µM, first compound 0.1 µM
[27] = second compound 1 µM, first compound 0.316 µM
[28] = second compound 1 µM, first compound 1 µM
[29] = second compound 1 µM, first compound 3.16 µM
[30] = second compound 1 µM, first compound 10 µM
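Further: viability read after 7 days of drug exposure.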
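Wherever viability, T/C is given: 100% = DMSO vehicle control luminescence.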

C=CC(=O)N1CCN(c2nc(=O)n(-c3c(C)ccnc3C(C)C)c3nc(-c4c(O)cccc4F)c(F)cc23)C(C)C1 (stereo not given) + CCN1CCN(Cc2ccc(Nc3ncc(F)c(-c4cc(F)c5nc(C)n(C(C)C)c5c4)n3)nc2)CC1
> 7.50: pIC50 (second compound 0.01 µM) | pIC50 (second compound 0.0316 µM) | pIC50 (second compound 0.1 µM) | pIC50 (second compound 0.316 µM) | pIC50 (second compound 1 µM)
inactive: viability, T/C [1] 21.1% | viability, T/C [2] 19.5% | viability, T/C [3] 14.9% | viability, T/C [4] 19.8% | viability, T/C [5] 17.1% | viability, T/C [6] 17.5% | viability, T/C [7] 18.4% | viability, T/C [8] 14.3% | viability, T/C [9] 15.7% | viability, T/C [10] 15.9% | viability, T/C [11] 13.1% | viability, T/C [12] 14% | viability, T/C [13] 15.5% | viability, T/C [14] 15.8% | viability, T/C [15] 16.6% | viability, T/C [16] 13.2% | viability, T/C [17] 13.8% | viability, T/C [18] 13.9% | viability, T/C [19] 16.2% | viability, T/C [20] 18.4% | viability, T/C [21] 22.1% | viability, T/C [22] 18.2% | viability, T/C [23] 16.6% | viability, T/C [24] 16% | viability, T/C [25] 18.6% | viability, T/C [26] 23% | viability, T/C [27] 27.1% | viability, T/C [28] 18.9% | viability, T/C [29] 25.8% | viability, T/C [30] 21.1%

Cn1ncc(Cl)c1-c1cc(C(=O)NC(CN)Cc2cccc(F)c2)sc1Cl (stereo not given) + CCN1CCN(Cc2ccc(Nc3ncc(F)c(-c4cc(F)c5nc(C)n(C(C)C)c5c4)n3)nc2)CC1
active: viability, T/C [6] 0.15% | viability, T/C [12] 0.13% | viability, T/C [18] 0.13% | viability, T/C [24] 0.14% | viability, T/C [30] 0.19%
inactive: viability, T/C [1] 88.8% | viability, T/C [2] 68% | viability, T/C [3] 50.2% | viability, T/C [4] 61.4% | viability, T/C [5] 49.9% | viability, T/C [7] 57.7% | viability, T/C [8] 53.9% | viability, T/C [9] 49.9% | viability, T/C [10] 54.2% | viability, T/C [11] 28.6% | viability, T/C [13] 74.8% | viability, T/C [14] 51.4% | viability, T/C [15] 52.7% | viability, T/C [16] 45.8% | viability, T/C [17] 27.6% | viability, T/C [19] 42.4% | viability, T/C [20] 51.4% | viability, T/C [21] 57.9% | viability, T/C [22] 33% | viability, T/C [23] 30.9% | viability, T/C [25] 59% | viability, T/C [26] 51.8% | viability, T/C [27] 47.2% | viability, T/C [28] 37.4% | viability, T/C [29] 30%
6.65: pIC50 (second compound 1 µM)
5.73: pIC50 (second compound 0.01 µM)
5.92: pIC50 (second compound 0.0316 µM)
6.33: pIC50 (second compound 0.1 µM)
> 7.50: pIC50 (second compound 0.316 µM)

Cn1ncnc1[C@H]1c2n[nH]c(=O)c3cc(F)cc(c23)N[C@@H]1c1ccc(F)cc1 + CCN1CCN(Cc2ccc(Nc3ncc(F)c(-c4cc(F)c5nc(C)n(C(C)C)c5c4)n3)nc2)CC1
7.74: pIC50 (second compound 0.0316 µM)
inactive: viability, T/C (second compound 0.01 µM, first compound 0.000316 µM) 94.2% | viability, T/C (second compound 0.01 µM, first compound 0.001 µM) 89.6% | viability, T/C (second compound 0.01 µM, first compound 0.00316 µM) 64.2% | viability, T/C (second compound 0.01 µM, first compound 0.01 µM) 76.7% | viability, T/C [1] 64.9% | viability, T/C [2] 40.9% | viability, T/C (second compound 0.0316 µM, first compound 0.000316 µM) 64% | viability, T/C (second compound 0.0316 µM, first compound 0.001 µM) 81.5% | viability, T/C (second compound 0.0316 µM, first compound 0.00316 µM) 69.3% | viability, T/C (second compound 0.0316 µM, first compound 0.01 µM) 46.1% | viability, T/C [7] 49.8% | viability, T/C [8] 24.7% | viability, T/C (second compound 0.1 µM, first compound 0.000316 µM) 63.2% | viability, T/C (second compound 0.1 µM, first compound 0.001 µM) 75.8% | viability, T/C (second compound 0.1 µM, first compound 0.00316 µM) 63.1% | viability, T/C (second compound 0.1 µM, first compound 0.01 µM) 52.8% | viability, T/C [13] 29.8% | viability, T/C [14] 30.4% | viability, T/C (second compound 0.316 µM, first compound 0.000316 µM) 63.5% | viability, T/C (second compound 0.316 µM, first compound 0.001 µM) 72.2% | viability, T/C (second compound 0.316 µM, first compound 0.00316 µM) 66.5% | viability, T/C (second compound 0.316 µM, first compound 0.01 µM) 52.1% | viability, T/C [19] 49.2% | viability, T/C [20] 30% | viability, T/C (second compound 1 µM, first compound 0.000316 µM) 61.9% | viability, T/C (second compound 1 µM, first compound 0.001 µM) 67.4% | viability, T/C (second compound 1 µM, first compound 0.00316 µM) 56.1% | viability, T/C (second compound 1 µM, first compound 0.01 µM) 43.3% | viability, T/C [25] 32.8% | viability, T/C [26] 40.3%
8.26: pIC50 (second compound 1 µM)
7.95: pIC50 (second compound 0.1 µM)
7.14: pIC50 (second compound 0.01 µM)
7.66: pIC50 (second compound 0.316 µM)
